The first assay concerns the target T1, Thymidylate synthase (Homo sapiens, UniProt P04818). Briefly: Fold increase of inhibition of human thymidylate synthase from that of control.
Conditions: not given
Target sequence in this assay (P04818 2-313 limits assumed): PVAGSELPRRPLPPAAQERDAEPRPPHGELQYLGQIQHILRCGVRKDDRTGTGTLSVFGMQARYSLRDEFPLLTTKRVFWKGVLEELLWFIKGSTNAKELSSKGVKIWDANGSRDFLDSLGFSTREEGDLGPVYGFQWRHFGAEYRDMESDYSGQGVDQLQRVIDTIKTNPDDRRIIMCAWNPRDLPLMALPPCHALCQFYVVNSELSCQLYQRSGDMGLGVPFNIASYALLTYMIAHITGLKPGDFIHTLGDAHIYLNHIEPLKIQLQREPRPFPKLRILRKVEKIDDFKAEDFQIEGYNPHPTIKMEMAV
For `C#CCN(Cc1ccc2nc(N)nc(O)c2c1)c1ccc(C(=O)NC(CCC(=O)NC(CCC(=O)NC(CCC(=O)NC(CCC(=O)O)C(=O)O)C(=O)O)C(=O)O)C(=O)O)cc1` (stereo not drawn), the Fold increase was found to be 171.

On to `C#CCN(Cc1ccc2nc(N)nc(O)c2c1)c1ccc(C(=O)NC(CCC(=O)NC(CCC(=O)NC(CCC(=O)O)C(=O)O)C(=O)O)C(=O)O)cc1` (stereo not drawn), for which the Fold increase came out at 97.

`C#CCN(Cc1ccc2nc(N)nc(O)c2c1)c1ccc(C(=O)NC(CCC(=O)NC(CCC(=O)NC(CCC(=O)NC(CCC(=O)NC(CCC(=O)O)C(=O)O)C(=O)O)C(=O)O)C(=O)O)C(=O)O)cc1` (stereo not drawn) gave a Fold increase of 167.

Turning to `C#CCN(Cc1ccc2nc(N)nc(O)c2c1)c1ccc(C(=O)NC(CCC(=O)NC(CCC(=O)O)C(=O)O)C(=O)O)cc1` (stereo not drawn), the Fold increase came to 31.

The target in another assay is T1, Thymidylate synthase. The experiment in a line: Compound was tested for inhibition of human (WI-L2) thymidylate synthase. The note with it: read-out: Ki app.
Target sequence in this assay (P04818 whole entry): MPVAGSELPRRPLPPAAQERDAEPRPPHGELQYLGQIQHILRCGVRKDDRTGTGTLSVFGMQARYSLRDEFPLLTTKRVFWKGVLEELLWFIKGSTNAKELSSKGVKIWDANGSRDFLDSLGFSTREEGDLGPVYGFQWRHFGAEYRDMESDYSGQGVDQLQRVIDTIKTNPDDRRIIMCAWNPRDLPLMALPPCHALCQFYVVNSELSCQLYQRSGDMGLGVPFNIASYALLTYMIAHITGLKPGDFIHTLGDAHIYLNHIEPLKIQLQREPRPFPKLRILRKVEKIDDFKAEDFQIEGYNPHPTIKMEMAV
As to `C#CCN(Cc1ccc2nc(N)[nH]c(=O)c2c1)c1ccc(C(=O)NC(CCC(=O)NC(CCC(=O)NC(CCC(=O)NC(CCC(=O)NC(CCC(=O)O)C(=O)O)C(=O)O)C(=O)O)C(=O)O)C(=O)O)cc1` (stereo not drawn), the Ki came to 0.042 nM.

On to `C#CCN(Cc1ccc2nc(N)nc(O)c2c1)c1ccc(C(=O)NC(CCC(=O)NC(CCC(=O)NC(CCC(=O)O)C(=O)O)C(=O)O)C(=O)O)cc1` (stereo not drawn), for which the Ki worked out at 0.072 nM.

`C#CCN(Cc1ccc2nc(N)[nH]c(=O)c2c1)c1ccc(C(=O)NC(CCC(=O)NC(CCC(=O)O)C(=O)O)C(=O)O)cc1` (stereo not drawn): the Ki was 0.224 nM.

Take `C#CCN(Cc1ccc2nc(N)[nH]c(=O)c2c1)c1ccc(C(=O)NC(CCC(=O)NC(CCC(=O)NC(CCC(=O)NC(CCC(=O)O)C(=O)O)C(=O)O)C(=O)O)C(=O)O)cc1` (stereo not drawn): the Ki was 0.041 nM.

Source of the values: ChEMBL document CHEMBL1124318, “Quinazoline antifolates inhibiting thymidylate synthase: synthesis of four oligo(L-gamma-glutamyl) conjugates of N10-propargyl-5,8-dideazafolic acid and their enzyme inhibition” (J Med Chem, 1989).
